Biological target: T1, rat B1R (bradykinin receptor 1) (Rattus norvegicus, UniProt P97583)
T1 construct: expressed in transfected cells; host or cells: CHO K1 cells
T1 sequence (P97583 1-337): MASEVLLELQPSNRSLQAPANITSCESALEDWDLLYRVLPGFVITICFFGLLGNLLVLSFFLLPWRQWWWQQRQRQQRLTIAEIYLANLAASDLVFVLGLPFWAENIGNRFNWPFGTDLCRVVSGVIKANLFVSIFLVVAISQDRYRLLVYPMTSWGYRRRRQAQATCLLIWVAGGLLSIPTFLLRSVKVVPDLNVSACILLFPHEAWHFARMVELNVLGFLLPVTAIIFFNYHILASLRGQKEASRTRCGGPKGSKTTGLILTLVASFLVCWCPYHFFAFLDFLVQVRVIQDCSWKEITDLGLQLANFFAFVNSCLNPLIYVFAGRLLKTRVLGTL
Assay: FLIPR Ca2+ assay (Fluo-4) on CHO K1 cells stably transfected with the B1R gene of the rat (rB1R cells): % inhibition at 10 μM / IC50, agonist Des-Arg9-bradykinin
Format: cell-based
Conditions: CHO-K1, rat B1R
Method in brief: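 Antagonism is measured as the drop in peak Fluo-4 Ca2+ signal when the EC80 agonist follows 10–20 min compound exposure. The single-point screen uses 10 μM; IC50 uses several concentrations. Values are given as % of maximal achievable inhibition.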

Row | SMILES | inhibition at 10 µM
1 | CN(C(=O)c1ccccc1Cl)C1CCc2ccc(C(=O)N3CCC4(CCN(C(=O)c5cc(C(C)(C)C)nn5C)CC4)C3)cc21 (centres unmarked) [IND_CC-593, N-[6-[8-(5-tert-Butyl-2-methyl-2H-pyrazole-3-carbonyl)-2,8-diazaspiro[4.5]-decane-2-carbonyl]-2,3-dihydro-1H-inden-1-yl]-2-chloro-N-methyl-benzamide] | 50%
2 | O=C(NC1CCc2ccc(C(=O)N3CCC4(CC3)CCN(C(=O)c3cnccn3)CC4)cc21)c1ccccc1Cl (centres unmarked) [IND_CC-594, 2-Chloro-N-[6-[9-(pyrazine-2-carbonyl)-3,9-diazaspiro[5.5]undecane-3-carbonyl]-2,3-dihydro-1H-inden-1-yl]-benzamide] | 91%
3 | CSc1ncccc1C(=O)N1CCC2(CCN(C(=O)c3ccc4c(c3)C(NC(=O)c3ccccc3Cl)CC4)CC2)CC1 (centres unmarked) [IND_CC-595, 2-Chloro-N-[6-[9-(2-methylsulfanyl-pyridine-3-carbonyl)-3,9-diazaspiro[5.5]undecane-3-carbonyl]-2,3-dihydro-1H-inden-1-yl]-benzamide] | 91%
4 | N#Cc1ccc(C(=O)N2CCC3(CC2)CCN(C(=O)c2ccc4c(c2)C(NC(=O)c2ccccc2Cl)CC4)CC3)cc1 (centres unmarked) [IND_CC-596, 2-Chloro-N-[6-[9-(4-cyano-benzoyl)-3,9-diazaspiro[5.5]undecane-3-carbonyl]-2,3-dihydro-1H-inden-1-yl]-benzamide] | 94%
5 | O=C(NC1CCc2ccc(C(=O)N3CCC4(CC3)CCN(C(=O)C3CC3)CC4)cc21)c1ccccc1Cl (centres unmarked) [IND_CC-597, 2-Chloro-N-[6-[9-(cyclopropanecarbonyl)-3,9-diazaspiro[5.5]undecane-3-carbonyl]-2,3-dihydro-1H-inden-1-yl]-benzamide] | 101%
6 | CC(C)(C)CC(=O)N1CCC2(CC1)CCN(C(=O)c1ccc3c(c1)C(NC(=O)c1ccccc1Cl)CC3)CC2 (centres unmarked) [IND_CC-598, 2-Chloro-N-[6-[9-(3,3-dimethyl-butanoyl)-3,9-diazaspiro[5.5]undecane-3-carbonyl]-2,3-dihydro-1H-inden-1-yl]-benzamide] | 96%
7 | O=C(NC1CCc2ccc(C(=O)N3CCC4(CC3)CCN(C(=O)c3ccc(F)cc3Cl)CC4)cc21)c1ccccc1Cl (centres unmarked) [IND_CC-599, 2-Chloro-N-[6-[9-(2-chloro-4-fluoro-benzoyl)-3,9-diazaspiro[5.5]undecane-3-carbonyl]-2,3-dihydro-1H-inden-1-yl]-benzamide] | 96%
8 | O=C(NC1CCc2ccc(C(=O)N3CCC4(CC3)CCN(C(=O)c3ccc(F)cc3F)CC4)cc21)c1ccccc1Cl (centres unmarked) [IND_CC-600, 2-Chloro-N-[6-[9-(2,4-difluoro-benzoyl)-3,9-diazaspiro[5.5]undecane-3-carbonyl]-2,3-dihydro-1H-inden-1-yl]-benzamide] | 100%
9 | Cn1nc(C(C)(C)C)cc1C(=O)N1CCC2(CCN(C(=O)c3ccc4c(c3)C(NC(=O)c3ccccc3Cl)CC4)CC2)CC1 (centres unmarked) [IND_CC-601, N-[6-[9-(5-tert-Butyl-2-methyl-2H-pyrazole-3-carbonyl)-3,9-diazaspiro-[5.5]undecane-3-carbonyl]-2,3-dihydro-1H-inden-1-yl]-2-chloro-benzamide] | 77%
10 | Cc1cc(C(=O)N2CCC3(CCN(C(=O)c4ccc5c(c4)C(NC(=O)c4ccccc4Cl)CC5)CC3)CC2)n(C(C)(C)C)n1 (centres unmarked) [IND_CC-602, N-[6-[9-(2-tert-Butyl-5-methyl-2H-pyrazole-3-carbonyl)-3,9-diazaspiro-[5.5]undecane-3-carbonyl]-2,3-dihydro-1H-inden-1-yl]-2-chloro-benzamide] | 95%
11 | O=C(c1ccc2c(c1)C(N(C(=O)c1ccccc1Cl)C1CC1)CC2)N1CCC2(CCN(C(=O)C3CC3)CC2)C1 (centres unmarked) [IND_CC-603, 2-Chloro-N-[6-[8-(cyclopropanecarbonyl)-2,8-diazaspiro[4.5]decane-2-carbonyl]-2,3-dihydro-1H-inden-1-yl]-N-cyclopropyl-benzamide] | 75%

Reference: US8455475B2 (Gruenenthal GmbH, priority 2009, dated 2013)
